Laboratory results: patent publication US12590130B2, “Bipartite molecules and uses thereof in treating diseases associated with abnormal protein aggregates” (ACADEMIA SINICA, priority 2014, dated 2026)

Legend:
[1] = Solubility of therapeutic peptides; format: physicochemical
Method: In this study, the rational design was tested for HD. Several bipartite therapeutic peptides containing 8 consecutive arginines (8R) attached to a stretch of consecutive glutamines (polyQ) were synthesized and their biological activity of decreasing the aggregation propensity of the mHtt protein was investigated. The length of the polyQ of these bipartite peptides was 5 (8R5Q), 10 (8R10Q), 15 (8R15Q) or 20 (8R20Q) (Table 2).

109QmHtt aggregates = test: TIRF microscopy of mHtt aggregates in Neuro2a cells; format: cell-based; conditions: Neuro2a cells expressing 109QmHtt
Method: FIG. 3. Diagrams showing the co-localization of tested bipartite peptides with the 109QmHtt aggregates. Panel A: Structure of TAMRA-labeled 8R10Q used in this study. Panel B: Epifluorescence micrographs of Neuro2a cells expressing 109QmHtt treated with TAMRA-8R10Q (8R10Q) at various time points. Note the co-localization of 8R10Q and 109QmHttGFP aggregates (GFP) from 8-24 hours (arrows). Scale bar: 10 μm. Panel C: TIRF micrographs of the Neuro2a expressing 109QmHtt treated with water or peptides as indicated at various time points. Note the decrease in aggregate size in 8R10Q and 8R15Q-treated cells. Panel D: Quantitation of the size of individual aggregates in Neuro2a at 8 hours (left) and 24 hours (right) after peptide treatment. […] Panel E: Quantitation of the number of aggregates in 20 Neuro2a cells at 12 hours (left) and 24 hours (right) after peptide treatment. Both the 8R10Q and 8R15Q increased the number of aggregates. Statistics performed with one way ANOVA. **p<0.01; ***p<0.001.
To probe into the details of the effect of peptide on the mHtt aggregates, the parameters of the mHtt aggregates were visualized and measured using the Total Internal Reflection Fluorescence (TIRF) microscopy. […] The number of aggregates in 20 cells was also calculated. 8R10Q and 8R15Q increased the number of the aggregates by 4-5 fold (FIG. 3, panel E).

109QmHtt [2] = test: Filter trap assay of aggregated 109QmHtt in Neuro2a cells; format: cell-based
Method: (§1) FIG. 4. Testing the ability of therapeutic peptides to decrease mHtt aggregation in Neuro2a cells overexpressing mHtt. Panel A: Filter trap assays and corresponding quantitation of cells (panel B) treated as indicated at 8 hours (T1), 24 hours (T2), or both (T1+2) after transfection with the 109QmHtt construct. […] Panel C: Western blots and quantitation (panel D) of RIPA-soluble (sol) and -insoluble (ins) fractions of Neuro2a cells overexpressing 25QHtt or 109QmHtt and treated as indicated. […] Panel E: Western blot of the 109QmHtt in cells treated as indicated. Note that MG132 blocked the effect of 8R10Q peptide with respect to decreasing insoluble 109QmHtt. Panel F: Quantitation of ratio of 109QmHtt in cells treated MG132 (+) over DMSO (−) in relationship to peptides. Statistical analysis conducted with one way ANOVA, *<0.05, **<0.01, ***<0.001, ns: not significant.
Whether the peptides could modulate the aggregation propensity of mHtt was next investigated.

109QmHtt [3] = test: Western blot of RIPA-soluble and -insoluble fractions of Neuro2a lysates; format: cell-based; conditions: peptide-treated samples
Method: as §1
For further characterization, Neuro2a lysates were separated into the RIPA-soluble (sol) and insoluble (ins) fractions ([…]). 8R10Q peptide decreased the level of mHtt in both the soluble and insoluble fractions as compared with water, 8R, or the scrambled (s8R10Q) control (FIG. 4, panel D). […]

[4] = system: Neuro2a cells expressing 109QmHtt; test: Cell growth curve of Neuro2a cells expressing 109QmHtt; format: cell-based, mouse; conditions: 109QmHtt with or without 12.5 μM H2O2; vs 8R or scrambled control
Method: (§2) FIG. 5. Therapeutic effect of 8R10Q and 8R15Q in 109QmHtt-expressing cells. Panel A: Cell viability assay by MTT in Neuro2a cells expressing 25QHtt (left) or 109QmHtt (right) treated with H2O2 at 50 μM and the indicated peptide. Panel B: Cell growth curve of Neuro2a cells expressing 25QHtt or 109QmHtt treated with indicated peptide. The cells in right subpanel were further treated with H2O2 at 12.5 μM 16 hours after transfection. 109QmHtt cells growth was slower than that of the 25QHtt cells. 8R10Q treatment rescued the slow growth of Neuro2a cells by 109QmHtt with or without H2O2. Panel C: Micrographs of the phase contrast and fluorescent images of retinoic acid-differentiated Neu2a cells expressing GFP-25QHtt or GFP-109QmHtt (GFP) treated with the indicated peptide. Note the neurites of the differentiated cells. Panel D: Quantitation of the percentage of differentiated cells with neurites. Fewer 109QmHtt-expressing cells had neurites vs. 25QHtt-expressing cells. […] The experiments were conducted in triplicate and repeated twice. Statistical analysis was performed with one way ANOVA, *p<0.05; **p<0.01; ***p<0.001, ns: not significant.
The expression of 109QmHtt reduced the growth of Neuro2a cells, and so did the lower levels of H2O2 (12.5 μM) (FIG. 5, panel B).

[5] = system: Neuro2a cells expressing 109QmHtt; test: Retinoic acid-induced neurite outgrowth; format: cell-based, mouse; conditions: 109QmHtt cells; vs water or scrambled control
Method: as §2
Retinoic acid (RA) induced the differentiation of Neuro2a cells with neurite outgrowth. 109QmHtt decreased the number of cells bearing RA-induced neurites relative to 25QHtt (FIG. 5, panels C and D).

**Q.** With “H-RRRRRRRRWDQQQQQQQQQQ-NH2 [Peptide 8R10Q, NH2-(R)8-W-D-(Q)10-CONH2]” as the substance, how does the “Solubility (DMEM/10% FBS)” value ([1]; DMEM/10% FBS) read?
**A.** Soluble

**Q.** And the “solubility in water or culture medium” value ([1]; water or culture medium)?
**A.** highly soluble

**Q.** And the “average size of the aggregates” value (109QmHtt aggregates)?
**A.** 0.3 μm^2

**Q.** What about the “aggregated 109QmHtt by filter trap assay” value (109QmHtt [2]; 20 μM peptide added at 8 hours (T1) or 8 plus 24 hours (T1+T2) after transfection, vs water or 8R) of the same substance?
**A.** significantly reduced

**Q.** What about the “aggregated 109QmHtt by filter trap assay” value (109QmHtt [2]; peptide added at 24 hours alone) of the same substance?
**A.** no obvious effects

**Q.** What about the “ratio of the MG132:DMSO 109QmHtt” value (109QmHtt [3]) of the same substance?
**A.** much higher

**Q.** And the cell growth [4]?
**A.** ameliorated the reduction in growth

**Q.** What about the RA-induced neurite outgrowth [5] of the same substance?
**A.** significantly reversed the defect in neurite outgrowth
